Assay results taken from US9248217B2, “Nanoparticle coating of surfaces” (Nanocopocia, LLC, priority 2006, dated 2016).

Experiments:
[1] = SEM imaging of drug particles on hydrogel; type: physicochemical; details: SEM at 20,000x magnification
Description: For initial feasibility spray examples, griseofulvin (0.09023 g), a poorly water soluble antifungal agent, was dissolved in a mixture of ethanol (9 ml) and acetone (6 ml). A hydrogel sample, approximately 5 mm in largest diameter, removed from a borate buffer solution and placed on a metallic spray platform beneath the ElectroNanospray device's dual capillary spray head. The solution was sprayed in the cone jet mode at 4.17 kV at 5 μl/min and a distance of 15.6 mm from the hydrogel. Spray time was 20 minutes. The surface pattern seen in the SEM image shown in FIGS. 39A and 39B show a uniform, closely packed surface of approximately 200 nm particles at 20,000× magnification.

[2] = HPLC retention time of eluted peptide before and after ElectroNanospray (structural integrity); type: physicochemical; details: sprayed in aqueous solution onto stents and stainless steel plates
Description: General HPLC methods to quantify dexamethasone (DXM) and three peptides (luteinizing hormone releasing hormone (human; LHRH), angiotensin I, and insulin chain B) were developed using an HP 1090 system equipped with a narrowbore column (Zorbax SB C-18, 2.1 mm i.d.×150 mm, 3.5 μm) and UV detector. Data integration and processing were performed with Agilent ChemStation software (Rev. A.08.03). Peak areas were obtained by subtracting the baseline (from a “blank” injection of the sample matrix) from the experimental chromatogram. DXM was analyzed with the following method: 20/80 to 100/0 to 20/80 acetonitrile/water in 3 min and 3.01 min at 0.6 mL/min, end run at 6 min; 65° C.; 10 μL injection volume. DXM, which was detected at 243 nm, eluted at 2.27 min. The calibration curve for DXM (obtained from Alexis Biochemicals) generated with seven standard concentrations ranging from 0.5 to 30 μg/ml in acetonitrile was adequately linear (R^2=0.9999) and the limit of quantification (LOQ) was 0.5 μg/ml. The peptides (all obtained from Sigma-Aldrich) were analyzed with the following method: 20/80 to 50/50 to 20/80 acetonitrile/water buffered with 0.1% (v/v) perchloric acid in 5 min and 5.01 min at 0.4 mL/min, end run at 9 min; 65° C.; 10 μL injection volume; 210 nm detection wavelength. The retention of the peptides was measured before and after the ElectroNanospray process described earlier. LHRH eluted at 2.61 min, angiotensin I eluted at 3.54 min, and insulin B chain eluted at 4.71 min. Calibration curves for the peptides were obtained using five standard concentrations ranging from 1.25 to 50 μg/ml in a solution of 10 mM perchloric acid in water. The LOD for LHRH, angiotensin I and insulin chain B were 0.19, 0.25 and 0.34 μg/ml, respectively. System suitability and injection reproducibility tests were satisfactory.
We identified and sourced three readily available peptides of varying chain length, LHRH, angiotensin I, and insulin B chain. These were sprayed in aqueous solution onto both stents and stainless steel plates. […]

Compound | particle size on hydrogel surface [1] | HPLC retention time after spraying compared to before spraying [2]
COC1=CC(=O)C[C@@H](C)[C@]12Oc1c(Cl)c(OC)cc(OC)c1C2=O [griseofulvin] | approximately 200 nm | 
Luteinizing hormone releasing hormone [LHRH] |  | unchanged
angiotensin I (DRVYIHPFHL; Angiotensin-1; UniProt P01019 25-34, looked up) [model peptide obtained from Sigma-Aldrich] |  | unchanged
insulin B chain |  | unchanged
